Assay results: patent US10470459B2, “Antimicrobial preparations, methods for preparing the same and uses thereof to combat microorganisms” (IPABC LTD, priority 2014, dated 2019)
Like-named read-outs stand apart in the source and are kept apart here.

Tests used:
[1] = H2O, 20° C., cited from earlier work
[2] = Critical micelle concentration (CMC); type: physicochemical; details: H2O, 20° C.; approx. conversion of the mM value
Excerpt: The term “critical micelle concentration” refers to the concentration of a surfactant in a polar solvent above which the surfactant molecules will spontaneously arrange as a micelle. In accordance with the invention, this value may be expressed in any convenient units of concentration, with the exception that when CMC values are undergoing comparison, the value is expressed as a molar concentration (i.e. in units of M, mM, μM, etc., as appropriate). In the present context a micelle is considered to be a colloid arrangement of surfactant molecules in a polar solvent in which the hydrophilic head groups are oriented towards the polar solvent in a substantially spherical shape and the hydrophobic tail groups are sequestered to the interior of the sphere. In the present context a reference to the CMC of a surfactant is a reference to the CMC of the surfactant in the conditions of the aqueous liquid composition of the invention (including physical conditions such as temperature), unless otherwise indicated. For convenience, this may be taken as the CMC of the surfactant in isolation in pure water at 20° C. CMC values may be calculated by any convenient means, preferably by one of the methods described in Mukerjee P., et. al, Critical Micelle Concentrations of Aqueous Surfactant Systems, United States Department of Commerce, Nat. Stnd. Ref. Data Ser., Nat. Bur. Stand., February 1971 (U.S.).

[3] = Turbidity of diluted mixtures, OD at 570 nm; type: physicochemical; details: diluted from stock of 100000 ppm AG6210 and/or 25000 ppm ε-polylysine, analysed immediately
Excerpt: In general the experiments described in Examples 2 to 17 comprise two stages. First stage is the preparation of a concentrated solution of the surfactant(s) and crystal substrate in drinking water. This stage may involve the mixing of a pre-prepared stock solution(s) of the surfactant in drinking water and a pre-prepared stock solution of the substrate in drinking water. The exact procedure used is set out in each Example. The second stage is the dilution of aliquots of the stock solution with single aliquots of drinking water in glass vessels to result in diluted mixtures with varying (theoretical) concentrations of surfactant(s) and substrate as recited in the Tables of each Example. The diluted mixtures were incubated for the time and at the temperature recited in each Example before the amount of particulate matter in the mixture was assessed. This assessment was by spectrophotometer set to measure OD at a wavelength of 570 nm in Example 2 and, for Examples 3 to 17, by naked eye upon agitation of the vessel and illumination by electric light. […]
Test mixtures (100 ml) were prepared by pipetting appropriate amounts of the concentrated solution into glass flasks and adjusting the volume to 100 ml with drinking water. Mixtures were analysed immediately by measuring OD at 570 nm. […]

E. coli = test: Antimicrobial efficacy, CFU count after 30 min contact; type: cell-based; details: ε-polylysine 250 ppm, AG 6210 0
Protocol: 100 μl of an E. coli suspension (˜1.5×10^8 CFUs) was added to 900 μl of a freshly prepared dilute ε-polylysine/AG6210 mixture of the invention (prepared as described above) and incubated for 30 min at room temperature. Reaction was stopped by adding 9 ml of neutraliser. Mixture was then diluted 1:10 and 1:100 and 100 μl of the neat mixture and each dilution was applied to agar plates. Plates were incubated for 48 hrs at 37° C. and CFUs counted.
The antimicrobial efficacy of the following dilute ε-polylysine/AG6210 mixtures, prepared in accordance with the invention, was assessed as described above.

Row | Compound | CMC [1] | other results
1 | CCCCCCCCCC[N+](C)(C)CCCCCCCCCC.[Cl-] [di-n-decyldimethyl ammonium chloride] | 1.5 mM | 
2 | CCCCCCCCC(=O)N(C)C[C@H](O)[C@@H](O)[C@H](O)[C@H](O)CO [n-nonanoyl-N-methylglucamine] | CMC (H2O, 20° C.) of n-nonanoyl-N-methylglucamine: 19-25 mM | CMC ([1]; listed as N-nonanoyl-N-methylglucamine): CMC (H2O, 20° C.) of N-nonanoyl-N-methylglucamine: 19-25 mM
3 | CCCCCCCS[C@@H]1O[C@H](CO)[C@@H](O)[C@H](O)[C@H]1O [n-heptyl-β-D-thioglucoside] | CMC (H2O, 20° C.) of n-heptyl-β-D-thioglucoside: 29 mM | 
4 | CCCCCCCCO[C@@H]1O[C@H](CO)[C@@H](O)[C@H](O)[C@H]1O [n-octyl-β-D-glucopyranoside] |  | CMC [2]: ~2800 ppm
5 | CCCCCCCCO[C@@H]1O[C@H](CO)[C@@H](O[C@H]2O[C@H](CO)[C@@H](O)[C@H](O)[C@H]2O)[C@H](O)[C@H]1O [n-octyl-β-D-maltopyranoside] | CMC (H2O, 20° C.) of n-octyl-β-D-maltopyranoside: 23 mM | 
6 | alkyl-dimethylbenzyl ammonium chloride | 0.7 mM | 
7 | ε-polylysine |  | Turbidity upon dilution (OD at 570 nm) [3]: do not show turbidity; CFUs in each dilution of E. coli culture (E. coli; dilution 1:1): 100 CFUs; CFUs in each dilution of E. coli culture (E. coli; dilution 1:10): 40 CFUs; CFUs in each dilution of E. coli culture (E. coli; dilution 1:100): 25 CFUs
8 | CCCCCCCCCCO[C@@H]1O[C@H](CO)[C@@H](O[C@H]2O[C@H](CO)[C@@H](O)[C@H](O)[C@H]2O)[C@H](O)[C@H]1O [n-decyl-β-D-maltopyranoside] | CMC (H2O, 20° C.) of n-decyl-β-D-maltopyranoside: 1.6 mM | 
